Experiments:
[1] = In vivo toxicity, single dose and multidose MTD study
Method: FIG. 10A-D: 10A. Single dose acute toxicity study by Up/Down Methods. Body weights of the mice following dosing. FIG. 10B. Mean body weights of mice during multidose MTD study. Data are shown as mean±SD for 5 mice. FIG. 10C. Median body weight of mice during multidose MTD study. FIG. 10D. Plasma concentrations p62-ZZ antagonist in pilot mice after 100 mg/kg IV.
Preliminary in vivo studies of the p62-ZZ antagonist #3 were performed 5 to determine the toxicity, multiple doses MTD and plasma concentration of the antagonist given IV. For the pilot PK study the prototype p62-ZZ antagonist (compound #3) was used as an internal standard for Mass spectroscopy assays.

VCAM-1 expression = test: TNF-α induced VCAM-1 expression by marrow stromal cells, Western blot; format: cell-based, human; settings: 3 h pre-treatment, TNFα 48 hours
Method: FIG. 5A-B: 5A. VCAM-1 expression using Western blot analysis. Normal human stromal cells were cultured with/without TNF and p62-ZZ inhibitors (#1-6) for 48 hours. The cell lysates were collected and VCAM-1 expression was measured using an anti-VCAM-1 antibody (Santa Cruz). FIG. 5B. IL-6 production by human and mouse marrow stromal cells by ELISA. Normal human and mouse marrow stromal cells were cultured with/without TNFα and p62-ZZ inhibitors (#1-6) for 48 hours. The cell culture media were collected and IL-6 production measured using an IL-6 ELISA kit (R &D). Data are shown as the means (n=2). Normal human or mouse marrow stromal cells were maintained in 10% FBS-IMDM and treated with p62-ZZ inhibitors (#1-6) for 3 hours. Then TNFα or vehicle was added for 48 hours. Cell lysates were collected and VCAM-1 expression measured by Western blot using an anti-VCAM-1 antibody (Santa Cruz). The culture media were collected and IL-6 production was measured using an IL-6 ELISA kit (R&D Company).

OCCNCc1ccc(OCc2ccccc2)c(OCc2ccccc2)c1 [Compound 3, 2-[[3,4-bis(phenylmethoxy)phenyl]methylamino]ethanol]
effect on body weight ([1]; doses up to 100 mg/kg, single dose or qdx5/day, up to 20 days): no effect | gross pathology of brain, liver, kidney tissue ([1]; mice of the in vivo studies): no gross pathology | VCAM-1 expression induced by TNF-α blocked compared to vehicle (VCAM-1 expression): 30%

Source: US11739053B2, “P62-ZZ chemical inhibitor” (ID4PHARMA, LLC, priority 2011, dated 2023)
